Data set [1] concerns Daphnia sp. As to conditions: for Classification (aquatic toxicity): based on Daphnia 48 hours EC50.
Data set [2] deals with Fish. As to the kind of experiment: Experimental fish 96-hour acute toxicity (values in brackets in Table 4). The format is in vivo. As to conditions: experimental result (value in brackets).

Read-outs that look alike come from different tables or passages of the source.

As for `COCCOCCOCCNC(C)(C)C` [B, Methoxyethoxyethoxyethanol-tert-butylamine], the Biodegradability (day 0, 20° C.) came out at 0; the Biodegradability (day 1, 20° C.) is 0.00; the Biodegradability (day 2, 20° C.) worked out at 0.20; the Biodegradability (day 3, 20° C.) was found to be 0.30; the Biodegradability (day 4, 20° C.) is given as 0.60; the Biodegradability (day 5, 20° C.) is listed as 1.02. Besides, the Biodegradability reads like this: (day 6, 20° C.) 1.54; (day 7, 20° C.) 2.09; (day 8, 20° C.) 3.00; (day 9, 20° C.) 3.81; (day 10, 20° C.) 1.89; (day 11, 20° C.) 3.82. For the same compound, the Biodegradability reads like this: (day 12, 20° C.) 4.04; (day 13, 20° C.) 4.70; (day 14, 20° C.) 5.70; (day 15, 20° C.) 6.03; (day 16, 20° C.) 6.56; (day 17, 20° C.) 7.14. Besides, the Biodegradability (day 18, 20° C.) is 7.65; the Biodegradability (day 19, 20° C.) turned out to be 9.52; the Biodegradability (day 20, 20° C.) came out at 7.55; the Biodegradability (day 21, 20° C.) came to 7.55; the Biodegradability (day 22, 20° C.) is 7.55; the Biodegradability (day 23, 20° C.) stood at 7.55. This compound also registered a Biodegradability (day 24, 20° C.) of 7.55; a Biodegradability (day 25, 20° C.) of 7.55; a Biodegradability (day 26, 20° C.) of 7.55; a Biodegradability (day 27, 20° C.) of 7.55; a Biodegradability (day 28, 20° C.) of 7.55. Also, the “Classification (aquatic toxicity)” value in data set [1] is “No classification”. The “Daphnia Experimental, 48 hours, EC50” value in data set [1] (experimental, 48 hours) was “EC50 > 100 mg/l”.

“Ethoxyethanol-tert-butylamine (tert-butylamino-ethoxy-ethanol)”: the “Fish 96-hour LC50” value in data set [2] is 225 µg/mL. The Biodegradability reads like this: (day 0, 20° C.) 0; (day 1, 20° C.) 0.05; (day 2, 20° C.) 0.00; (day 3, 20° C.) 0.00; (day 4, 20° C.) 0.00; (day 5, 20° C.) 0.00. Besides, the Biodegradability is reported as 0.00 (day 6, 20° C.); 0.06 (day 7, 20° C.); 1.68 (day 8, 20° C.); 3.34 (day 9, 20° C.); 0.47 (day 10, 20° C.); 0.56 (day 11, 20° C.). The compound also registered a Biodegradability (day 12, 20° C.) of 0.76; a Biodegradability (day 13, 20° C.) of 0.91; a Biodegradability (day 14, 20° C.) of 1.04; a Biodegradability (day 15, 20° C.) of 1.16; a Biodegradability (day 16, 20° C.) of 1.33; a Biodegradability (day 17, 20° C.) of 1.51. Besides, the Biodegradability reads like this: (day 18, 20° C.) 1.56; (day 19, 20° C.) 1.58; (day 20, 20° C.) 1.71; (day 21, 20° C.) 1.89; (day 22, 20° C.) 2.00; (day 23, 20° C.) 1.95. Also, the Biodegradability (day 24, 20° C.) was 2.00; the Biodegradability (day 25, 20° C.) was found to be 2.06; the Biodegradability (day 26, 20° C.) amounted to 2.06; the Biodegradability (day 27, 20° C.) was 2.06; the Biodegradability (day 28, 20° C.) stood at 2.06. Moreover, the “Classification (aquatic toxicity)” value in data set [1] is “Harmful to aquatic”. Besides, the “Daphnia 48-hour LC50” value in data set [1] (experimental result (value in brackets)) was determined as 31.6 µg/mL.

For the compound `CC(C)(C)NCCOCCOCCNC(C)(C)C` [D, Bis-(t-butylamino ethoxy)ethane (bis-(t-butylamino)triethylene glycol)], in data set [1], the “Classification (aquatic toxicity)” value was “Harmful to aquatic”.

Values taken from patent publication US20130142717A1, “OFFSHORE GAS SEPARATION PROCESS” (priority 2011, published 2013).
